Tests used:
Live Jurkat cells [1] = experiment: DNA staining of live cells and DNA content cell cycle analysis using flow cytometry (Example 36); assay type: cell-based, human; conditions: for G2/G1 ratio: 30 min
Method: Live Jurkat cells are suspended at 5×10^5 cells/ml in each RPMI media with 10% Fetal Bovine Serum (FBS) and Hanks Balanced Salt Solution (HBSS). A compound (e.g., Compound 9 or a salt thereof) is added to each of one mL cell suspensions at concentrations 1 μM, 5 μM, 10 μM, and 20 μM, and then incubated at 37° C. or room temperature for 30 minutes while protected from light. Cells are run through a Becton Dickinson (BD) LSRII Flow Cytometer. Forward Scatter (FS) versus Side Scatter (SS) dual parameter plot is used to gate main cell population. Fluorescence is collected using three lasers: 488 nm excitation laser with 670/14, 720/20 and 787/42 bandpass emission filter, 532 nm excitation laser with 585/42 and 780/60 bandpass emission filters, and 633 nm excitation laser with 695/40, and 787/42 bandpass emission filters. Collection of at least 10,000 events at flow rate of ˜200 events/second. The data is further analyzed using MODFIT LT Flow Cytometry Modeling Software from Verity Software House, Inc. to evaluate the ratio of G2/G1 and the % CV of G1 phase.
DNA content analysis in living cells is expected to produce variable results. Depending on the cell type, the % CV of the mean DNA content of a uniform cell population may vary from between 5%-10%. Although there is no formal consensus regarding the acceptable maximal CV value for the mean DNA content of the G0G1 phase, the % CV of normal diploid cells in a histogram generally is <8%. The CV of a tumor may be higher due to the presence of multiple tumor subpopulations. However, tumor CVs of <8% are recommended for useful S-Phase determinations (Cytometry, Vol. 14 (5), 1993, page 474).
Linearity is the observed ratio between the DNA Diploid G2M and G0G1 positions. The ratio normally is about two, but this ratio may deviate from the ideal value even under normal conditions (see, MODFIT LT User Guide, June 2000).

Live Jurkat cells [2] = experiment: Comparison of DNA stains on cell viability (Example 44); assay type: cell-based; conditions: human, 72 h, 5 μM
Method: Live Jurkat cells are suspended at 5×10^5 cells/ml in complete RPMI media with 10% FBS. Four aliquots of 10 ml each of the cell suspension are made. A final concentration of 5 μM Hoechst 33342 (Invitrogen Corporation) is added to one aliquot, a final concentration of 5 μM DRAQ5 (Biostatus Limited, UK) is added to one aliquot, a final concentration of 5 μM Compound 9 is added to one aliquot, and one aliquot remains untreated as a control. All four aliquots are placed in a 37° C. waterbath for 30 minutes in protected from light. After the incubation, all cell suspensions are centrifuged, the cells are pelleted and the supernatant discarded. To each aliquot, 5 ml media is added. Four culture flasks are prepared by adding 35 ml media to each. One 5 ml aliquot of cells is added to one flask for each on the four cell suspensions aliquots. The flasks are placed in a 37° C. incubator with 5% CO2 in the dark for 72 hours. Each flask of cells is then gently mixed and cell suspension is removed for testing. The cell concentration and image is performed using the Cellometer instrument from Nexcelom. Percentage and absolute cell counts of live and dead cells for each treatment are determined using the LIVE/DEAD Viability/Cytotoxicity Kit (Invitrogen Corporation, Carlsbad, Calif.) with COUNTBRIGHT Absolute Counting Beads (Invitrogen Corporation). This involves adding one ml cell suspension to a 12×75 mm test tube and adding 2 μl of a 50 μM calcein AM solution to identify living cells and 4 μl of a 2 mM ethidium homodimer-1 solution to identify dead cells. The cell suspension is mixed and incubated for 20 minutes at room temperature protected from light. After the end of the incubation, 50 μl of well mixed COUNTBRIGHT absolute counting beads are added to each test tube. Each sample is run through the Becton Dickinson (BD) LSRII Flow Cytometer. Forward Scatter (FS) versus Side Scatter (SS) dual parameter plot is used to gate main cell population, and a separate gate is made around the bead population. Fluorescence is collected using 488 nm excitation laser with 530/30 bandpass and 610/20 bandpass emission filters. Markers on a dual parameter plot of calcein fluorescence versus ethidium homodimer-1 fluorescence is used to obtain percent of cells which are living and dead, as well as number of cell events recorded. By using the COUNTBRIGHT absolute counting beads assay, the absolute number of living and dead cells is calculated by using the equation: A/B×C/D=concentration of cells/μL (A=number of cell events, B=number of bead events, C=assigned bead count, D=volume of the sample in μl).

Live Jurkat cells [3] = experiment: DNA staining of live cells, 15 minute incubation, MODFIT analysis (Example 47); assay type: cell-based, human; conditions: 1.25, 2.5, 5, 10 μM, 37° C. and room temperature, 15 min
Method: Live Jurkat cells are suspended at 5×10^5 cells/ml in RPMI media Compound 9 is added to each of one mL cell suspensions at final concentrations 1.25 μM, 2.5 μM, 5 μM, and 10 μM and then incubated at 37° C. and room temperature for 15 minutes while protected from light. Cells are run through the Becton Dickinson (BD) LSRII Flow Cytometer. Forward Scatter (FS) versus Side Scatter (SS) dual parameter plot is used to gate main cell population. Fluorescence is collected using two lasers: the 488 nm excitation laser with 695/40 bandpass emission filter, and using the 633 nm excitation laser with 695/40 bandpass emission filters, collecting 10,000 events at flow rate of ˜200 events/second. The data is further analyzed using MODFIT LT Flow Cytometry Modeling Software from Verity Software House, Inc. to look at ratio of G2/G1 and the % CV of G1 phase.

[4] = test system: U-2 OS cells (ATCC HTB-96); experiment: Imaging of cells stained with near-IR DNA stain (Example 48); assay type: cell-based; conditions: 20 μM, live, fixed or simultaneously fixed cells
Method: Live U-2 OS cells (ATCC HTB-96) were treated with Compound 9 under various conditions and imaged with a 10×/0.3 objective on an ArrayScan VTI automated microscope platform (ThermoFisher/Cellomics). […] Such staining patterns have been routinely utilized in auto-focus and cell identification in automated microscopy. Cells were fixed with 3.7% formaldehyde (diluted from Sigma F1635) in the presence of 20 μM Compound 9 for 30 minutes at room temperature. The fixed cells were imaged and show similar prominent nuclear and dim cytosolic labeling (FIG. 4).

Compound `CN(C)CCNC(=O)CNc1ccc(O)c2c1C(=O)c1c(O)ccc(N)c1C2=O` [Compound 9] has a G2/G1 ratio (Live Jurkat cells [1]; 1 μM, RPMI media, 37° C.) of 1.91, a G2/G1 ratio (Live Jurkat cells [1]; 5 μM, RPMI media, 37° C.) of 1.83 and a G2/G1 ratio (Live Jurkat cells [1]; 10 μM, HBSS buffer, 37° C.) of 1.84. The G2/G1 ratio (Live Jurkat cells [1]; 10 μM, HBSS buffer, room temperature) was 1.83, the G2/G1 ratio (Live Jurkat cells [1]; 10 μM, RPMI media, 37° C.) was 1.82 and the G2/G1 ratio (Live Jurkat cells [1]; 10 μM, RPMI media, room temperature) was 1.82. For the same compound, the G2/G1 ratio (Live Jurkat cells [1]; 20 μM, RPMI media, 37° C.) was 1.87, the “% CV of G1-phase” value (Live Jurkat cells [1]; all concentrations (1-20 μM), media and HBSS, 37° C. and room temperature, MODFIT) was < 8% and the “G2/G1 ratios (linearity)” value (Live Jurkat cells [1]; all concentrations, MODFIT analysis) was “indicating linearity of staining”. The “DNA staining of live cells” value (Live Jurkat cells [1]; excited by 488, 532 and 633 nm lasers) was “effective stain for DNA”, the “% Dead Cells” value (Live Jurkat cells [2]) was 26.4% and the “% Living Cells” value (Live Jurkat cells [2]) was 71.2%. For the same compound, the “Cell Count (Cellometer)” value (Live Jurkat cells [2]) was 2.54 × 10^5 cells/mL, the “Cell Count (Flow Cytommetry)” value (Live Jurkat cells [2]) was 0.7 × 10^5 cells/mL and the “% CV of G1-phase” value (Live Jurkat cells [3]) was < 8%. The “staining pattern” value [4] was “prominent nuclear and relatively dim cytsolic staining”.

Source: US9709557B2, “Anthraquinone based near IR emitting compounds and uses thereof” (LIFE TECHNOLOGIES CORPORATION, priority 2008, dated 2017)
